In paper PMC10809370, “Dye-Decolorizing Peroxidase of Streptomyces coelicolor (ScDyPB) Exists as a Dynamic Mixture of Kinetically Different Oligomers” (ACS Omega, 2024):
One block for each molecule: values may come before it.

Key:
[1] = biological target: T1, Dye-decolorizing peroxidase ScDyPB (Streptomyces coelicolor, UniProt Q9FBY9); assay: initial rates of MHQ oxidation to methylquinone at […] nm, purified enzyme; format: biochemical
T1 construct: gene SCO7193
T1 sequence (Q9FBY9 1-316): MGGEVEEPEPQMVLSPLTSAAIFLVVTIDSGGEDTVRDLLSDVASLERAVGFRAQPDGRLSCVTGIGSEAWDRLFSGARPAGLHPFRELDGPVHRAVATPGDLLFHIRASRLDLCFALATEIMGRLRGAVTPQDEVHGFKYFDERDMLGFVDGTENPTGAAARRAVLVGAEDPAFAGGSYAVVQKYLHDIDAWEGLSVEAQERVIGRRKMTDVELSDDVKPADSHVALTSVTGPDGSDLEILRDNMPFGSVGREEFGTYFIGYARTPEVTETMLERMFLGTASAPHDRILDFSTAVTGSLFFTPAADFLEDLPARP

[2] = biological target: T1, Dye-decolorizing peroxidase ScDyPB; assay: dye oxidation rate at […] nm, […] dye, […] H2O2; format: biochemical
[3] = biological target: T1, Dye-decolorizing peroxidase ScDyPB; assay: biochemical
[4] = biological target: T1, Dye-decolorizing peroxidase ScDyPB; assay: dye oxidation rate at […] nm, […] dye, […] H2O2; format: biochemical; remark: listed apart in the source
[5] = biological target: the molecule itself; assay: SEC; Superdex 75 Increase 10/300 GL, 20 mM Tris-HCl, 0.1 M NaCl, pH 7.5; 100 uL of 18.1 uM ScDyPB injected; calibrated with standard proteins; apparent molecular weights
purified protein = substrate: OO; assay: purified protein; conditions: heme heme in its resting state

Molecule: Cc1cc(O)ccc1O [MHQ, methylhydroquinone]
initial rates of MHQ oxidation to methylquinone at 251 nm, purified enzyme [1]: the rate of the oxidation of both ABTS and MHQ scaled linearly with the concentration of the ScDyPB in the cuvette

Molecule: Nc1c(S(=O)(=O)O)cc(Nc2ccc(S(=O)(=O)O)c(Nc3nc(Cl)nc(Cl)n3)c2)c2c1C(=O)c1ccccc1C2=O [RB4, reactive blue 4]
dye oxidation rate at 610 nm, 0.1 mM dye, 1.0 mM H2O2 [2]: 0.66 ± 0.04 s^–1

Ki [3]: 4.12 ± 0.36 µM
Molecule: CCn1c(=NN=c2sc3cc(S(=O)(=O)O)ccc3n2CC)sc2cc(S(=O)(=O)O)ccc21 [ABTS, 2,2′-azino-di(3-ethyl-benzothiazoline-6-sulfonic acid)]

dye oxidation rate at 595 nm, 0.1 mM dye, 1.0 mM H2O2 [4]: 0.58 ± 0.02 s^–1
Molecule: Nc1c(S(=O)(=O)O)cc(Nc2cccc(S(=O)(=O)CCOS(=O)(=O)O)c2)c2c1C(=O)c1ccccc1C2=O [RB19, reactive blue 19]

B1: Dye-decolorizing peroxidase from S. coelicolor A3(2) (ScDyPB) (enzyme, Streptomyces coelicolor A3(2))
chain: MGGEVEEPEPQMVLSPLTSAAIFLVVTIDSGGEDTVRDLLSDVASLERAVGFRAQPDGRLSCVTGIGSEAWDRLFSGARPAGLHPFRELDGPVHRAVATPGDLLFHIRASRLDLCFALATEIMGRLRGAVTPQDEVHGFKYFDERDMLGFVDGTENPTGAAARRAVLVGAEDPAFAGGSYAVVQKYLHDIDAWEGLSVEAQERVIGRRKMTDVELSDDVKPADSHVALTSVTGPDGSDLEILRDNMPFGSVGREEFGTYFIGYARTPEVTETMLERMFLGTASAPHDRILDFSTAVTGSLFFTPAADFLEDLPARP
notes: Dye-decolorizing peroxidase ScDyPB, Streptomyces coelicolor A3(2), UniProtKB Q9FBY9; molecular weight printed as 34 kDa; Heme protein, reconstituted with hemin; also called type B dye-decolorizing peroxidase of Streptomyces coelicolor; subfamily B DyP; source: E. coli BL21 (DE3), purified, reconstituted with hemin
stoichiometry N [5]: 3 | Km (purified protein): 890 ± 60 µM
